{
  "source": "patent US20260015311A1",
  "about": "“AMINO LIPID COMPOUND, PREPARATION METHOD THEREFOR, AND USE THEREOF” (SHENZHEN SHENXIN BIOTECHNOLOGY CO., LTD., priority 2022, published 2026)",
  "key": {"Fluc mRNA [1]": {"test_system": "Fluc mRNA", "experiment": "In vivo delivery of luciferase mRNA (Fluc mRNA) by lipid nanoparticles, living imaging", "parameters": "species or system BALB/c mice", "details": "after 12 hours, total fluorescence", "protocol": "(§1) The amino lipid compounds of the present disclosure were mixed with DOPE, cholesterol, and PEG2000-DMG in a molar ratio of 45:10:42.5:2.5 and dissolved in absolute ethanol. By using a microinjection pump, the resultant ethanol solution and a sodium acetate solution (50 mM, pH=4.0) were mixed in a ratio of 1:3 in a microfluidic chip to prepare a crude solution of lipid nanoparticles, which were then dialyzed in 1×PBS at a controlled temperature of 4° C. for 6 h using a dialysis box (Fisher, MWCO 20,000), and filtered through a 0.22 μm microporous filter membrane before use.\n(§2) The formulation method was the same as the formulation method 1, except that the molar ratio of the amino lipid compounds to DSPC, cholesterol and PEG2000-DMG was 50:10:38.5:1.5.\nThe lipid nanoparticles prepared according to the above formulation method 1 or 2 were used in the biological experiments below for evaluating the performances of in vivo delivery of luciferase mRNA (Fluc mRNA). For the lipid nanoparticles obtained in the formulation method 1, the mass ratio of the amino lipid compounds to the luciferase mRNA was about 10:1, and the lipid nanoparticles were administered subcutaneously; and the lipid nanoparticles obtained in the formulation method 2 were administered by tail vein and intramuscular injection.\n6-week-old female BALB/c mice weighed about 20 g were selected and fed in a SPF-grade feeding room. Animal tests were conducted strictly according to the guidelines of National Health institutions and the requirements of animal ethics.\n(§3) 9 mice were assigned randomly to each group and injected with the lipid nanoparticles at a dosage of 0.5 mg/kg by three administration routes, i.e., subcutaneous, intramuscular and tail vein injection (three mice for each administration route). After 12 hours, D-luciferin potassium salt (200 μL, 10 mg/mL) was injected into each mouse through the tail vein. After 10 minutes, the total fluorescence intensity of each mouse was observed on a living imaging system (IVIS-200, Xenogen) and taken photographs for record. The expression intensities of Fluc mRNA delivered by representative amino lipid compounds through the three administration routes are shown in Table 2-4. MC3 was used as a control and SM102 was used as a comparative compound."}, "Fluc mRNA [2]": {"test_system": "Fluc mRNA", "experiment": "Activity of lipid nanoparticles of formulation method 2, Fluc mRNA by intramuscular administration", "format": "in vivo, BALB/c mice", "protocol": "as §2, §3\nPreparation of Lipid Nanoparticles: LNPs were Prepared Using the Formulation Method 2 for Intramuscular Administration.\nThe measurement method was the same as that of Test Example 1."}, "[3]": {"experiment": "Stability of lipid nanoparticles at 25° C., DLS particle size and PDI", "format": "physicochemical", "details": "for particle size: preparation day (week 0)", "protocol": "as §1\n(§4) Preparation of Lipid Nanoparticles: The Formulation Method 1 was Used to Prepare LNPs for Subcutaneous Administration.\nCharacterization of lipid nanoparticles: The particle size and PDI of the prepared lipid nanoparticles were measured by Nano-ZSZEN 3600 (Malvern). 40 μL of the LNP solution was taken for particle size measurement with circulation for three times, 30 seconds for each circulation.\n(§5) The particle size measurements were carried out on the day of preparation (week 0), and after one week (week 1), two weeks (week 2), and four weeks (week 4) of storage at 25° C., and the expression intensities of Fluc mRNA delivered by subcutaneous administration were determined on the day of preparation (week 0) and after four weeks (week 4)."}, "Fluc mRNA [4]": {"test_system": "Fluc mRNA", "experiment": "Stability of lipid nanoparticles at 25° C., subcutaneous expression of Fluc mRNA", "format": "in vivo, mice", "details": "for Fluc expression change after four weeks: 25° C., week 4 versus week 0", "protocol": "as §1, §3, §4, §5"}, "liver": {"test_system": "liver", "experiment": "Targeting assay, fluorescence in liver after intramuscular injection", "format": "in vivo, mice", "details": "15 μg mRNA per animal, 6 h after injection, dissected liver", "protocol": "The lipids were mixed with DSPC, CHO-HP, M-DMG2000 (i.e. PEG2000-DMG) in a molar ratio of 50:10:38.5:1.5 and dissolved in absolute ethanol. mRNA was dissolved in a sodium acetate solution (0.2M, pH=5.0). The samples of various prescriptions were prepared at a water phase:alcohol phase=9 ml/min: 3 ml/min by using a microfluidic equipment (MPE-L2) and a chip (SN.000035). The two phases were mixed by injecting them into the microfluidic chip according to the interface requirements, and then the drug solution was loaded into a 100KD dialysis bags, immersed in a beaker containing 1 L dialysis solution and wrapped with aluminum foil, and dialyzed at 100 rpm for 1 h at room temperature, and then the dialysis solution was replaced and the dialysis continued for 1 h.\nFormulation of dialysis solution: 1×PBS+8% sucrose solution: 2 packets of 1×PBS powder were taken into a beaker, dissolved with 2 L DEPC water, added with 160 g of sucrose additionally, and mixed to obtain the 1×PBS+8% sucrose solution.\nThe mass ratio of mRNA:Lipids in the obtained lipid nanoparticles were about 1:10.\nFluorescent protein-encoding mRNA-LNP preparations containing Compound (I-6-II), MC3 or SM102, respectively were prepared by using the formulation method of mRNA lipid nanoparticle (LNP) preparations as described above, selecting a fluorescent protein-encoding mRNA as the mRNA and the compound (I-6-II), MC3 or SM102, respectively as the lipid.\nEach preparation to be tested was administered to mice by intramuscular injection, with each animal receiving 15 μg mRNA preparation sample. 6 h after sample injection, the mice were anesthetized by isoflurane inhalation, and injected intraperitoneally with 200 μL of D-Luciferin (concentration 10 mg/ml) luciferase development substrate. […] After development of living imaging of the intramuscularly injected animals, they were immediately dissected, followed by observation of the fluorescence in the liver immediately after the dissection."}, "[5]": {"details": "intramuscular injection, formulation method 2, 0.5 mg/kg"}, "[6]": {"details": "tail vein administration, formulation method 2, 0.5 mg/kg"}, "[7]": {"details": "subcutaneous administration, formulation method 1, 0.5 mg/kg"}, "[8]": {"details": "week 0, subcutaneous administration"}, "[9]": {"details": "week 4, storage at 25° C., subcutaneous administration"}},
  "data": [
    {"smiles": "CCCCCCCCC(CCCCCC)OC(=O)CCCCCN(CCCCCC(=O)OC(CCCCCC)CCCCCCCC)C1CCCC(O)C1", "note": "(stereo not shown) [Compound 8]", "values": [
      {"measurement": "Fluorescence intensity (expression intensity of Fluc mRNA)", "setting": "Fluc mRNA [1]; [5]", "result": 9.2, "unit": "E + 06"},
      {"measurement": "Fluorescence intensity (expression intensity of Fluc mRNA)", "setting": "Fluc mRNA [1]; [6]", "result": 5.1, "unit": "E + 06"},
      {"measurement": "Fluorescence intensity (expression intensity of Fluc mRNA)", "setting": "Fluc mRNA [2]", "result": 9.2, "unit": "E + 06"}
    ]},
    {"smiles": "CCCCCCCCCOC(=O)CCCCCCCN(CCO)CCCCCCCC(=O)OC(CCCCCCCC)CCCCCCCC", "note": "[SM102, reference compound]", "values": [
      {"measurement": "Fluorescence intensity (expression intensity of Fluc mRNA)", "setting": "Fluc mRNA [1]; [5]", "result": 4.6, "unit": "E + 07"},
      {"measurement": "Fluorescence intensity (expression intensity of Fluc mRNA)", "setting": "Fluc mRNA [1]; [7]", "result": 2.4, "unit": "E + 07"},
      {"measurement": "Fluorescence intensity (expression intensity of Fluc mRNA)", "setting": "Fluc mRNA [1]; [6]", "result": 7.4, "unit": "E + 06"},
      {"measurement": "particle size", "setting": "[3]", "result": "about 100 nm"},
      {"measurement": "Z-Average", "setting": "[3]; week 0 (day of preparation)", "result": 120, "unit": "nm·days"},
      {"measurement": "PDI", "setting": "[3]; week 1, storage at 25° C.", "result": 0.16},
      {"measurement": "Z-Average", "setting": "[3]; week 1, storage at 25° C.", "result": 145, "unit": "nm·days"},
      {"measurement": "PDI", "setting": "[3]; week 2, storage at 25° C.", "result": 0.21},
      {"measurement": "Z-Average", "setting": "[3]; week 2, storage at 25° C.", "result": 195, "unit": "nm·days"},
      {"measurement": "PDI", "setting": "[3]; week 4, storage at 25° C.", "result": 0.28},
      {"measurement": "Z-Average", "setting": "[3]; week 4, storage at 25° C.", "result": 245, "unit": "nm·days"},
      {"measurement": "Fluc expression change after four weeks", "setting": "Fluc mRNA [4]", "result": "decreased significantly"},
      {"measurement": "Fluc Expression intensities", "setting": "Fluc mRNA [4]; [8]", "result": "2.4E+07"},
      {"measurement": "Fluc Expression intensities", "setting": "Fluc mRNA [4]; [9]", "result": "3.6E+06"},
      {"measurement": "fluorescence intensity in liver", "setting": "liver", "result": "3.23E+06"}
    ]},
    {"smiles": "CCCCCCCCCCCOC(=O)CCCCCN(CCCCCCCC(=O)OC(CCCCCCCC)CCCCCCCC)C1CCCCC1O", "note": "(stereo not shown) [Comparative compound 3]", "values": [
      {"measurement": "Fluorescence intensity (expression intensity of Fluc mRNA)", "setting": "Fluc mRNA [2]", "result": 2.9, "unit": "E + 05"}
    ]},
    {"smiles": "CCCCC/C=C\\C/C=C\\CCCCCCCCOC(=O)CCCCCCCN(CCCCCCOC(=O)C(CCCCCC)CCCCCCCC)C1CCCC(O)C1", "note": "(stereo not shown) [Compound 12]", "values": [
      {"measurement": "Fluorescence intensity (expression intensity of Fluc mRNA)", "setting": "Fluc mRNA [1]; [7]", "result": 4.2, "unit": "E + 06"},
      {"measurement": "Fluorescence intensity (expression intensity of Fluc mRNA)", "setting": "Fluc mRNA [1]; [6]", "result": 6.2, "unit": "E + 06"}
    ]},
    {"smiles": "CCCCCCCCCOC(=O)CCCCCCCN(CCCCCCOC(=O)C(CCCCCC)CCCCCCCC)C1CCCC(O)C1", "note": "(stereo not shown) [Compound 9]", "values": [
      {"measurement": "Fluorescence intensity (expression intensity of Fluc mRNA)", "setting": "Fluc mRNA [1]; [5]", "result": 3.7, "unit": "E + 07"},
      {"measurement": "Fluorescence intensity (expression intensity of Fluc mRNA)", "setting": "Fluc mRNA [1]; [7]", "result": 4.2, "unit": "E + 07"},
      {"measurement": "particle size change after four weeks of storage", "setting": "[3]; 25° C., week 4 versus week 0", "result": "did not increase significantly"},
      {"measurement": "particle size", "setting": "[3]", "result": "about 100 nm"},
      {"measurement": "Z-Average", "setting": "[3]; week 0 (day of preparation)", "result": 115, "unit": "nm·days"},
      {"measurement": "PDI", "setting": "[3]; week 1, storage at 25° C.", "result": 0.03},
      {"measurement": "Z-Average", "setting": "[3]; week 1, storage at 25° C.", "result": 120, "unit": "nm·days"},
      {"measurement": "PDI", "setting": "[3]; week 2, storage at 25° C.", "result": 0.06},
      {"measurement": "Z-Average", "setting": "[3]; week 2, storage at 25° C.", "result": 125, "unit": "nm·days"},
      {"measurement": "Z-Average", "setting": "[3]; week 4, storage at 25° C.", "result": 125, "unit": "nm·days"},
      {"measurement": "Fluc expression change after four weeks", "setting": "Fluc mRNA [4]", "result": "did not decrease significantly"},
      {"measurement": "Fluc Expression intensities", "setting": "Fluc mRNA [4]; [8]", "result": "4.2E+07"},
      {"measurement": "Fluc Expression intensities", "setting": "Fluc mRNA [4]; [9]", "result": "3.1E+07"}
    ]},
    {"smiles": "CCCCCCCCCOC(=O)CCCCCCCN(CCCCCCCC(=O)OC(CCCCCCCC)CCCCCCCC)C1CC(O)C1", "note": "(stereo not shown) [Compound 1]", "values": [
      {"measurement": "Fluorescence intensity (expression intensity of Fluc mRNA)", "setting": "Fluc mRNA [1]; [7]", "result": 2.7, "unit": "E + 07"}
    ]},
    {"smiles": "CCCCCCCCCCCOC(=O)CCCCCCCN(CCCCCCCC(=O)OC(CCCCCCCC)CCCCCCCC)C1CCCC(C#N)C1", "note": "(stereo not shown) [Compound 17]", "values": [
      {"measurement": "Fluorescence intensity (expression intensity of Fluc mRNA)", "setting": "Fluc mRNA [1]; [5]", "result": 6.2, "unit": "E + 06"}
    ]},
    {"smiles": "CCCCCCCCC(CCCCCC)OC(=O)CCCCCN(CCCCCC(=O)OC(CCCCCC)CCCCCCCC)C1CCC(O)CC1", "note": "(stereo not shown) [Comparative compound 8]", "values": [
      {"measurement": "Fluorescence intensity (expression intensity of Fluc mRNA)", "setting": "Fluc mRNA [2]", "result": 2.1, "unit": "E + 06"}
    ]},
    {"smiles": "CCCCCCCCCOC(=O)CCCCCCCN(CCCCCCCC(=O)OC(CCCCCCCC)CCCCCCCC)C1CCC(O)CC1", "note": "(stereo not shown) [Comparative compound 6]", "values": [
      {"measurement": "Fluorescence intensity (expression intensity of Fluc mRNA)", "setting": "Fluc mRNA [2]", "result": 1.9, "unit": "E + 07"},
      {"measurement": "Fluorescence intensity (expression intensity of Fluc mRNA)", "setting": "Fluc mRNA [2]; listed as comparative compound 6", "result": "1.9E+07"}
    ]},
    {"smiles": "CCCCCCCCCOC(=O)CCCCCCCN(CCCCCCCC(=O)OC(CCCCCCCC)CCCCCCCC)C1CCCC(OC)C1", "note": "(stereo not shown) [Compound 16]", "values": [
      {"measurement": "Fluorescence intensity (expression intensity of Fluc mRNA)", "setting": "Fluc mRNA [1]; [7]", "result": 1.3, "unit": "E + 06"}
    ]}
  ]
}
